Patent publication US20060205753A1, “Use of methylnaltrexone and related compounds to treat post-operative gastrointestinal dysfunction” (priority 2005, published 2006)
Entries after “also recorded” stand apart in the source; their conditions may differ. Read-outs that look alike come from different tables or passages of the source.

How the values were obtained:
mu opioid receptor = mu opioid receptor (Homo sapiens, UniProt P35372); conditions: Alvimopan compared with methylnaltrexone; as characterized by Adolor Corporation; cited from earlier work
Chain of mu opioid receptor (P35372 whole entry, species assumed): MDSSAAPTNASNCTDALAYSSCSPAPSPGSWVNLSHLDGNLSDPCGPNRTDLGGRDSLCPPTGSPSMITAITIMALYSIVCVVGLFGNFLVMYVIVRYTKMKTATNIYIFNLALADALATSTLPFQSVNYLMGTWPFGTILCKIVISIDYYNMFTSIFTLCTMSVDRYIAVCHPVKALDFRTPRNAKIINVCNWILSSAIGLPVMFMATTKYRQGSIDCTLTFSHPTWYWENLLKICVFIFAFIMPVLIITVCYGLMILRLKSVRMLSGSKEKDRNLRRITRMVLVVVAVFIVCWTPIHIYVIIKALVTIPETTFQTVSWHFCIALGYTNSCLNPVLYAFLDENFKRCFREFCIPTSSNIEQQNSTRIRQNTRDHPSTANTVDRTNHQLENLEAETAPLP

[1] = tested on: human patients, abdominal surgery; conditions: 6 mg and 12 mg oral doses, started at least two hours prior to abdominal surgery; cited from earlier work
[2] = white crystalline powder as provided; cited from earlier work
rat = conditions: cited from earlier work
[3] = tested on: human segmental colectomy patients; test: Phase 2 randomized, double-blind, placebo-controlled study of IV MNTX after segmental colectomy; assay type: in vivo
Excerpt: The following non-limiting examples relate to a phase 2 human study using MNTX to reduce the duration of gastrointestinal dysfunction following segmental colectomy. The primary objective of this study was to assess the activity of parenterally administered MNTX every six hours compared with placebo in shortening the duration of or preventing post-operative ileus in patients who have undergone segmental colectomies. Evidence of activity of MNTX was based on at least one or more of the following: the time to tolerance of liquids, time to first bowel movement, time to tolerance of solid foods, time to the combination of first solid meal and bowel movement, time to first micturition post foley catheter removal, and time to hospital discharge. The use of daily anti-emetic and opioid medication was also assessed.
A total of 65 patients at eight surgical centers participated in the phase 2 randomized, double-blind, placebo-controlled study. Subjects underwent segmental colectomies primarily due to cancer or diverticular disease. Shortly after surgery (90 minutes post surgery), study medication (0.3 mg/kg MNTX or placebo) was administered intravenously at six-hour intervals for a maximum of seven days.
The study was a double-blind, randomized parallel group study designed to evaluate the safety and activity of IV (intravenous) MNTX in the treatment of patients who are undergoing segmental colectomies via laparotomy and the duration of their post-operative ileus. Patients were randomized to either placebo (saline) or a fixed dose of IV MNTX of 0.30 mg/kg patient body weight in 50 cc of 0.9% normal saline hung as an IV piggyback (IVPB) to the main line and infused over twenty (20) minutes every six (6) hours until twenty-four (24) hours after the patient could tolerate solid foods, until discharged from the hospital, or for a maximum of seven (7) days. These time points for study drug discontinuation were selected in order to analyze the secondary efficacy endpoints of IV MNTX as well as the primary endpoints.
Day of Surgery. Within twenty-four (24) hours of surgery, patients were randomly assigned to either the MNTX 0.30 mg/kg or placebo (saline) dose group.
Prior to the first study drug administration the patient's vital signs were monitored. Patients were asked to assess their level of nausea, abdominal cramping, pain, and itching based on a verbal numerical scale. Within 90 minutes from the end of the surgical procedure, defined as the surgical end time recorded on the operating room (OR) sheet (regardless of whether a patient was in the PACU or not) the first dose of study drug was administered intravenously through an already existing IV line, hung as an IV piggyback (IVPB) to the main line, over 20 minutes. If the IV line was being used for other medications, i.e. antibiotics, electrolyte supplements, etc., the line was flushed with 20 cc of the main IV fluid prior to the hanging of study product. The patient's vital signs were monitored at the end of the study medication infusion, 20 min, 60 min, 120 min and 180 minutes after this first IV study drug administration. Patients were asked to assess their level of nausea, abdominal cramping, pain, and itching based on a verbal numerical scale and whether or not they had vomited 60 minutes after the end of the first study drug administration.
Inability to tolerate clear liquids was defined as nausea and/or vomiting within the first 60 minutes of the challenge.
The patient's diet was advanced to full liquids (≧500 cc of liquid) at the meal following the patient's tolerance of their first 30 cc of water by mouth. The patient's diet was then advanced to solid foods at the meal following their tolerance of full liquids. Tolerance of full liquids was defined as no clinically significant nausea and no vomiting within the first hour of the conclusion of the full liquids. […]

[4] = segmental colectomy patients, MNTX 0.30 mg/kg IV every 6 hours, on average
[5] = segmental colectomy patients, on average
[6] = sigmoidectomy patients, MNTX IV after surgery, on average

SMILES | Affinity for mu opioid receptor, relative (mu opioid receptor) | Outcome of phase III human studies on post-operative gastrointestinal dysfunction end-points [1] | Solubility in water [2] | Recovery of gastrointestinal transit (rat; MNTX intravenously 90 minutes before surgery) | Recovery of gastrointestinal transit (rat; MNTX intravenously closer to surgery (60 minutes or 45 minutes before surgery)) | Time to first bowel movement ([3]; segmental colectomy patients, MNTX 0.30 mg/kg IV every 6 hours started after surgery, on average) | Time to actual discharge [3, 4] | Time to discharge eligibility [3, 4] | Time to first flatus [3, 4] | Time to first full liquid diet [3, 4] | Time to first solid meal [3, 4] | Time to first solid meal and bowel movement (solids in-solids out) [3, 4] | Time to first use of an anti-emetic [3, 4] | Time to first anti-emetic use, delayed relative to absence of drug [3, 5] | Time to first flatus, accelerated relative to absence of drug [3, 5] | Time to first solid meal ([3]; sigmoidectomy patients, MNTX IV after surgery) | Time to actual discharge [3, 6] | Time to discharge eligibility [3, 6] | Time to first bowel movement [3, 6] | Time to first flatus [3, 6]
C[C@H]1CN(C[C@H](Cc2ccccc2)C(=O)NCC(=O)O)CC[C@@]1(C)c1cccc(O)c1 [Alvimopan] | greater affinity and selectivity than methylnaltrexone | inconsistent results that lacked statistical significance for many of the end-points; also recorded: inconsistent and lack statistical significance with respect to many of the end-points | – | – | – | – | – | – | – | – | – | – | – | – | – | – | – | – | – | –
C[N+]1(CC2CC2)CC[C@]23c4c5ccc(O)c4O[C@H]2C(=O)CC[C@@]3(O)[C@H]1C5 (stereo partly drawn) [MNTX, N-cyclopropylmethylnoroxy-morphine-methobromide] | lower mu opioid receptor affinity than Alvimopan | – | freely soluble in water | signs of partial recovery of gastrointestinal transit | not | about 97 hours | about 140 hours | about 119 hours | about 88 hours | about 70 hours | about 100 hours | about 124 hours | about 26 hours | about 10 hours | about 8 hours | about 93 hours | ≤ 125 h | about 105 hours | about 94 hours | about 85 hours
